This is an account of results in US20240115654A1, “INTRAVENOUS ADMINISTRATION OF ENGINEERED ANTIMICROBIAL AMPHIPHILIC PEPTIDES” (priority 2021, published 2024).

For data set [1], the system named is Acinetobacter spp. isolates (n = 104). The method, then: (§1) Comparator antibiotics were supplied by Micromyx, and stock solutions were prepared on the first day of testing using solvents recommended by CLSI (1). Stock solutions of all compounds were made at 40× the final testing concentration and stored at −80° C. prior to testing. Information regarding compound source, catalog and lot number, testing concentrations and drug diluent for the comparators and test agent are detailed below in Table 3.
(§2) The test organisms evaluated in this study consisted of clinical isolates from the Micromyx Repository and reference isolates from the American Type Culture Collection (ATCC; Manassas, VA). The clinical isolates were obtained from USA hospitals. Upon initial receipt at Micromyx, the organisms were sub-cultured onto an appropriate agar medium. Following incubation, colonies were harvested from these plates and cell suspensions prepared and frozen at −80° C. with a cryoprotectant. Prior to testing, the isolates were streaked from frozen vials onto Trypticase Soy Agar with 5% sheep blood (Becton Dickenson [BD]; Sparks, MD; Lot Nos. 7173618, 7166759, 7208688, 72144895, 7228505 and Remel Lenexa, KS Lot No. 212574). Plates were incubated at 35° C. overnight.
(§3) Mueller Hinton II broth (MHB II; BD; Lot Nos. 6258541 and 7143896) was used for MIC testing of aerobic organisms.
(§4) MIC values were determined using a broth microdilution procedure described by CLSI (1, 3). Automated liquid handlers (Multidrop 384, Labsystems, Helsinki, Finland; Biomek 2000 and Biomek FX, Beckman Coulter, Fullerton CA) were used to conduct serial dilutions and liquid transfers.
(§5) To prepare the drug mother plates, which would provide the serial drug dilutions for the replicate daughter plates, the wells of columns 2-12 of standard 96-well microdilution plates (Costar 3795) were filled with 150 μl of the designated diluent for each row of drug. The test articles and comparator compounds (300 μl at 40× the highest concentration to be tested) were dispensed into the appropriate wells in column 1. The Biomek 2000 was then used to make 2-fold serial dilutions in the mother plates from column 1 through column 11. The wells of Column 12 contained no drug and served as the organism growth control wells for the assay.
(§6) The daughter plates were loaded with 185 μL per well of MHB II using the Multidrop 384. The daughter plates were completed on the Biomek FX instrument which transferred 5 μL of drug solution from each well of a mother plate to the corresponding well of each daughter plate in a single step. A standardized inoculum of each test organism was prepared per CLSI methods (1). The inoculum for each organism was dispensed into sterile reservoirs divided by length (Beckman Coulter), and the Biomek 2000 was used to inoculate the plates. Daughter plates were placed on the Biomek 2000 work surface in reverse orientation so that inoculation took place from low to high drug concentration.
(§7) Plates were stacked 3-4 high, covered with a lid on the top plate, placed in plastic bags, and incubated at 35° C. for 16 to 20 hrs. Following incubation, the microplates were removed from the incubator and viewed from the bottom using a plate viewer. […] The MIC was read and recorded as the lowest concentration of drug that inhibited visible growth of the organism.
(§8) Clinical breakpoints to determine percent resistance within a given organism group were obtained from CLSI (3), with the exception of colistin for K. pneumoniae, Enterobacter spp., and E. coli, which are only available from EUCAST.

Data set [2] deals with Pseudomonas aeruginosa isolates (n = 109). The protocol:
as §1, §2, §3, §4, §5, §6, §7, §8

The test system of data set [3] is Klebsiella pneumoniae isolates (n = 101). The protocol:
as §1, §2, §3, §4, §5, §6, §7, §8

Data set [4] has as its system Escherichia coli isolates (n = 101). The protocol:
as §1, §2, §3, §4, §5, §6, §7, §8

Data set [5] relates to Enterobacter spp. isolates (Enterobacter aerogenes and E. cloacae, n = 102). Nature of the data set: organism not typed. The protocol:
as §1, §2, §3, §4, §5, §6, §7, §8

Data set [6] has as its system P. aeruginosa strains (PAO1 and 2 clinical isolates). As to the kind of experiment: Determination of bacterial resistance, passage at 0.5×MIC with daily MIC. The class given is cell-based, Pseudomonas aeruginosa. The settings on record: three P. aeruginosa strains, exposure at 0.5×MIC, FIG. 20. An excerpt:
Each antibiotic was compared for their propensity to select for bacterial resistance phenotypes in vitro.

Where [7] appears, read: Pseudomonas aeruginosa (n = 109).
Setting [8] is: IV infusion 1 mg/kg, Group 1, mean of rats.
Where [9] appears, read: IV infusion 5 mg/kg, Group 2, mean of rats.
Where [10] appears, read: IV infusion 10 mg/kg, Group 4, mean of rats.
Setting [11] is: Klebsiella pneumoniae (n = 101).

≈ marks a conversion by molar mass, not a printed value. Like-named read-outs stand apart in the source and are kept apart here. Peptide text beside a SMILES is read from it.

For the compound `CC(C)[C@H](NC(=O)[C@H](Cc1c[nH]c2ccccc12)NC(=O)[C@H](CCCNC(=N)N)NC(=O)[C@H](CCCNC(=N)N)NC(=O)[C@@H](NC(=O)[C@@H](NC(=O)[C@H](CCCNC(=N)N)NC(=O)[C@@H](NC(=O)[C@@H](NC(=O)[C@H](CCCNC(=N)N)NC(=O)[C@H](CCCNC(=N)N)NC(=O)[C@H](Cc1c[nH]c2ccccc12)NC(=O)[C@@H](NC(=O)[C@H](CCCNC(=N)N)NC(=O)[C@H](CCCNC(=N)N)NC(=O)[C@@H](NC(=O)[C@H](CCCNC(=N)N)NC(=O)[C@H](CCCNC(=N)N)NC(=O)[C@@H](NC(=O)[C@H](Cc1c[nH]c2ccccc12)NC(=O)[C@H](CCCNC(=N)N)NC(=O)[C@@H](N)CCCNC(=N)N)C(C)C)C(C)C)C(C)C)C(C)C)C(C)C)C(C)C)C(C)C)C(=O)N[C@@H](CCCNC(=N)N)C(=O)N[C@@H](CCCNC(=N)N)C(N)=O` [SEQ ID NO: 1] (H-RRWVRRVRRVWRRVVRVVRRWVRR-NH2), the “Mode (MIC)” value in data set [1] is 4 µg/mL; in data set [4] (isolates (n = 101)), 2 µg/mL; in data set [5], 16 µg/mL. Also, the MIC90 in data set [1] (Acinetobacter colistin-resistant, n=21) came out at 16 µg/mL (≈ 4.71 µM); in data set [1] (Acinetobacter spp. (n = 104)) it was 16 µg/mL (≈ 4.71 µM); in data set [2] (P. aeruginosa colistin-resistant, n=8), 16 µg/mL (≈ 4.71 µM); in data set [2] (setting [7]), 16 µg/mL (≈ 4.71 µM); in data set [3] (K. pneumoniae colistin-resistant, n=28), 16 µg/mL (≈ 4.71 µM). The AUCinf_D stood at 787 kg·ng·h/mL/ng under setting [8], 5158 kg·ng·h/mL/ng under setting [9] and 8049 kg·ng·h/mL/ng under setting [10]. For the same compound, the CL by setting is: under setting [8], 21.87 mL/min/kg; under setting [10], 2.12 mL/min/kg. For the same compound, the Extrapolated is, setting by setting: under setting [8], 3.28%; under setting [9], 0.424%; under setting [10], 0.186%. Moreover, the Vss came to 3.401 L/kg under setting [8] and 0.229 L/kg under setting [9]. The Vz was 10.884 L/kg under setting [8], 1.533 L/kg under setting [9] and 0.749 L/kg under setting [10].
Consider Colistin [reference compound], for which the MIC50 came out at 0.25 µg/mL in data set [1] (Acinetobacter spp. (n = 104)); 0.5 µg/mL in data set [2] (setting [7]); 0.12 µg/mL in data set [3] (setting [11]); 0.12 µg/mL in data set [4] (Escherichia coli (n = 101)); 0.12 µg/mL in data set [5] (Enterobacter spp. (n = 102)). Further, the MIC90 in data set [1] (Acinetobacter spp. (n = 104)) is greater than 32 µg/mL; in data set [2] (setting [7]), 1 µg/mL; in data set [3] (setting [11]), 32 µg/mL; in data set [4] (Escherichia coli (n = 101)), 0.12 µg/mL; in data set [5] (Enterobacter spp. (n = 102)), 0.25 µg/mL. In addition, the “Mode (MIC)” value in data set [1] (Acinetobacter spp. (n = 104)) came out at 0.25 µg/mL; in data set [2] (setting [7]), 0.5 µg/mL; in data set [3] (setting [11]) it was 0.12 µg/mL; in data set [4] (Escherichia coli (n = 101)), 0.12 µg/mL; in data set [5] (Enterobacter spp. (n = 102)) it was 0.12 µg/mL. Moreover, the “% R (percent of isolates resistant)” value in data set [1] (Acinetobacter spp. (n = 104), CLSI breakpoints) was determined as 20.2%; in data set [2] (Pseudomonas aeruginosa (n = 109), CLSI breakpoints), 7.3%; in data set [3] (Klebsiella pneumoniae (n = 101), CLSI breakpoints, colistin EUCAST) it was 27.7%; in data set [4] (Escherichia coli (n = 101), CLSI breakpoints, colistin EUCAST), 0%; in data set [5] (Enterobacter spp. (n = 102), CLSI breakpoints, colistin EUCAST), 5.8%. Also, the MIC range in data set [4] (Escherichia coli (n = 101)) is ≤0.03-0.5 ^ μg/mL. In data set [6], the “time to development of resistance (fold MIC >10)” value is no more than 13 days.
